Data reported in ChEMBL document CHEMBL4831503, “Design, synthesis, in vitro and in vivo anti-respiratory syncytial virus (RSV) activity of novel oxizine fused benzimidazole derivatives” (Eur J Med Chem, 2021).
Calls of active or inactive are those of the source. The rule behind the calls is not given here.

Legend:
[1] = test system: Respiratory syncytial virus; assay: Inhibition of RSV induced apoptosis in human HEp-2 cells assessed as reduction in PARP cleavage measured after 48 hrs by Western blot analysis; type: functional, organism-based
[2] = test system: Respiratory syncytial virus; assay: Antiviral activity against RSV infected in BALB/c mouse assessed as downregulation of IL-8 expression in lung tissue infected with RSV at 25 to 100 mg/kg/day measured after 2 to 6 days post infection by RT-PCR analysis; type: functional, organism-based; conditions: dose 25-100 mg/kg/day, time 2-6 day
[3] = test system: Respiratory syncytial virus; assay: Inhibition of RSV induced apoptosis in human HEp-2 cells assessed as early apoptotic cells at 50 uM measured after 60 hrs by Annexin V-FITC/PI staining based flow cytometry analysis (reference value: 10.3%); type: functional; design: scale not given: the % may be the effect or the level left
[4] = test system: Respiratory syncytial virus; assay: Antiviral activity against Respiratory syncytial virus infected in human HEp-2 cells assessed as reduction in viral infection incubated for 60 hrs by MTT assay; type: functional, organism-based; conditions: dose 3.125-50 µM
[5] = test system: Respiratory syncytial virus; assay: Antiviral activity against RSV infected in BALB/c mouse assessed as downregulation of iNOS expression in lung tissue infected with RSV at 25 to 100 mg/kg/day measured after 2 to 6 days post infection by RT-PCR analysis; type: functional, organism-based; conditions: dose 25-100 mg/kg/day, time 2-6 day
[6] = test system: Respiratory syncytial virus; assay: Antiviral activity against Respiratory syncytial virus infected in human HEp-2 cells assessed as inhibition of virus infected cells induced lesion formation at 25 uM measured after 60 hrs by microscopic analysis; type: functional, organism-based
[7] = test system: Respiratory syncytial virus; assay: Antiviral activity against Respiratory syncytial virus Long infected in human A549 cells assessed as reduction in viral infection incubated for 60 hrs by MTT assay; type: functional, organism-based; conditions: A549, 60 h
[8] = test system: Respiratory syncytial virus; assay: Antiviral activity against Respiratory syncytial virus Long infected in human HEp-2 cells assessed as reduction in viral infection up to 50 uM treated 2 hpi measured after 60 hrs by MTT assay; type: functional, organism-based; conditions: dose microM <=50, time 60.0 hrs
[9] = test system: Respiratory syncytial virus; assay: Antiviral activity against RSV infected in human HEp-2 cells assessed as decrease in virus induced IRF3 gene expression measured after 48 hrs by RT-PCR analysis; type: functional, organism-based
[10] = test system: Respiratory syncytial virus; assay: Antiviral activity against RSV Long infected in BALB/c mouse assessed as reversal of virus infection induced weight loss at 25 to 100 mg/kg/day administered via gastric gavage once daily for 6 days; type: functional, organism-based; conditions: dose 25-100 mg/kg/day, time 6.0 day
[11] = test system: Respiratory syncytial virus; assay: Antiviral activity against RSV Long infected in BALB/c mouse assessed as reduction in lung tissue damage by measuring lung index at 25 to 100 mg/kg/day measured after 4 to 6 days of virus infection; type: functional, organism-based; conditions: dose 25-100 mg/kg/day, time 4-6 day
[12] = test system: Respiratory syncytial virus; assay: Antiviral activity against RSV Long infected in BALB/c mouse assessed as lung edema at 25 mg/kg/day observed on day 6 after infection by H and E staining based microscopic analysis; type: functional, organism-based; conditions: time 6.0 day
[13] = Selectivity index, ratio of CC50 for human HEp-2 cells to EC50 for Respiratory syncytial virus A2 infected in human HEp-2 cells; type: toxicity, cell-based; conditions: read-out: Selectivity Index
[14] = test system: Respiratory syncytial virus; assay: Inhibition of RSV induced apoptosis in human HEp-2 cells assessed as reduction in cleaved caspase-9 expression measured after 48 hrs by Western blot analysis; type: functional, organism-based
Human orthopneumovirus [15] = assay: Antiviral activity against Respiratory syncytial virus A2 infected in human A549 cells assessed as reduction in viral infection incubated for 60 hrs by MTT assay; type: functional, organism-based; conditions: A2, A549, 60 h
[16] = test system: Respiratory syncytial virus; assay: Antiviral activity against RSV infected in human HEp-2 cells assessed as decrease in virus induced TLR-3 gene expression measured after 48 hrs by RT-PCR analysis; type: functional, organism-based
HEp-2 [17] = assay: Induction of apoptosis in human HEp-2 cells assessed as early apoptotic cells at 25 uM measured after 60 hrs by Annexin V-FITC/PI staining based flow cytometry analysis (reference value: 0.1%); type: functional
[18] = test system: Respiratory syncytial virus; assay: Antiviral activity against RSV infected in human HEp-2 cells assessed as decrease in virus induced IL-6 gene expression measured after 48 hrs by RT-PCR analysis; type: functional, organism-based
[19] = Cytotoxicity against human HEp-2 cells assessed as reduction in cell viability measured after 60 hrs by MTT assay; type: cell-based
[20] = test system: Respiratory syncytial virus; assay: Antiviral activity against RSV infected in human HEp-2 cells assessed as downregulation of RIG-1 expression at 25 to 50 uM treated 48 hpi and measured after 48 hrs by Western blot analysis; type: functional, organism-based; conditions: dose 25-50 µM
Human orthopneumovirus [21] = assay: Antiviral activity against Respiratory syncytial virus A2 infected in African green monkey Vero cells assessed as reduction in viral infection incubated for 60 hrs by MTT assay; type: functional, organism-based
Human orthopneumovirus [22] = assay: Antiviral activity against Respiratory syncytial virus A2 infected in human HEp-2 cells assessed as reduction in viral infection up to 50 uM treated 2 hpi measured after 60 hrs by MTT assay; type: functional, organism-based; conditions: dose microM <=50, time 60.0 hrs
[23] = test system: Respiratory syncytial virus; assay: Antiviral activity against RSV infected in human HEp-2 cells assessed as decrease in virus induced TRAF3 gene expression measured after 48 hrs by RT-PCR analysis; type: functional, organism-based
[24] = test system: Respiratory syncytial virus; assay: Inhibition of RSV induced apoptosis in human HEp-2 cells assessed as reversal of virus induced increase in Bax/Bcl-2 ratio at 25 to 50 uM measured after 36 hrs by Western blot analysis; type: functional, organism-based; conditions: dose 25-50 µM
HEp-2 [25] = assay: Induction of ROS production in human HEp-2 cells assessed as accumulation of ROS-positive cells at 25 uM measured after 36 hrs by DCHF-DA staining based flow cytometry analysis (reference value: 48.2%); type: functional
[26] = test system: Respiratory syncytial virus; assay: Antiviral activity against RSV Long infected in BALB/c mouse assessed as improvement in lung congestion at 25 to 100 mg/kg/day observed on day 6 after infection by H and E staining based microscopic analysis; type: functional, organism-based; conditions: dose 25-100 mg/kg/day, time 6.0 day
[27] = test system: Respiratory syncytial virus; assay: Antiviral activity against Respiratory syncytial virus Long infected in human HEp-2 cells assessed as reduction in viral infection incubated for 60 hrs by MTT assay; type: functional, organism-based; conditions: HEp-2, 60 h
[28] = test system: Respiratory syncytial virus; assay: Antiviral activity against RSV infected in BALB/c mouse assessed as downregulation of TLR3 expression in lung tissue infected with RSV at 25 to 100 mg/kg/day measured after 2 to 6 days post infection by RT-PCR analysis; type: functional, organism-based; conditions: dose 25-100 mg/kg/day, time 2-6 day
[29] = test system: Respiratory syncytial virus; assay: Antiviral activity against RSV Long infected in BALB/c mouse assessed as inhibition of alveolar infiltrates accumulation at 25 to 100 mg/kg/day observed on day 6 after infection by H and E staining based microscopic analysis; type: functional, organism-based; conditions: dose 25-100 mg/kg/day, time 6.0 day
[30] = test system: Respiratory syncytial virus; assay: Antiviral activity against RSV infected in BALB/c mouse assessed as inhibition of viral replication by measuring RSV-M gene expression in lung after 2 to 6 days post infection by RT-PCR analysis; type: functional, organism-based; conditions: time 2-6 day
[31] = test system: Respiratory syncytial virus; assay: Inhibition of RSV induced apoptosis in human HEp-2 cells assessed as reduction in cleaved caspase-3 expression measured after 60 hrs by Western blot analysis; type: functional, organism-based
[32] = test system: Respiratory syncytial virus; assay: Antiviral activity against RSV Long infected in BALB/c mouse assessed as reduction in lung tissue damage by measuring lung index at 25 to 100 mg/kg/day measured after 2 days of virus infection; type: functional, organism-based; conditions: dose 25-100 mg/kg/day, time 2.0 day
HEp-2 [33] = assay: Induction of apoptosis in human HEp-2 cells assessed as late apoptotic cells at 25 uM measured after 60 hrs by Annexin V-FITC/PI staining based flow cytometry analysis (reference value: 1.6%); type: functional

In the case of `Cc1c(Br)cc2nc3n(c2c1Br)[C@H]1OC[C@@H](O)[C@H]1OC3`, the inhibition [1] is reported as “Active”, the Activity [2] is reported as “Active” and the Activity [3] is reported as 3.9%. The Activity [4] was “Dose-Dependent Effect”, the Activity [5] was “Active” and the Activity [6] was “Active”. For the same compound, the EC50 [7] was 13.3 µM, the Activity [8] was “Active” and the Activity [9] was “Dose-Dependent Effect”. The Activity [10] was “Active”, the Activity [11] was “Active” and the Activity [12] was “Active”. For the same compound, the selectivity ratio [13] was 19.6, the inhibition [14] was “Active” and the EC50 (Human orthopneumovirus [15]) was 13.2 µM. For the same compound, the Activity [16] was “Dose-Dependent Effect”, the Activity (HEp-2 [17]) was 0.4% and the Activity [18] was “Dose-Dependent Effect”. For the same compound, the CC50 at 60 h [19] was 250 µM, the Activity [20] was “Active” and the EC50 (Human orthopneumovirus [21]) was 15.5 µM. For the same compound, the Activity (Human orthopneumovirus [22]) was “Active”, the Activity [23] was “Dose-Dependent Effect” and the inhibition [24] was “Active”. For the same compound, the Activity (HEp-2 [25]) was 53.1%, the Activity [26] was “Active” and the EC50 [27] was 9.49 µM. For the same compound, the Activity [28] was “Active”, the Activity [29] was “Active” and the Activity [30] was “Dose-Dependent Effect”. The inhibition [31] was “Active”, the Activity [32] was “Active” and the Activity (HEp-2 [33]) was 2.4%.
